Measured values published in the supplement of paper PMC10307832.

How the values were obtained:
Test in all cases: relative viability (nuclei count vs DMSO), 5 days (fraction); higher = more cells survive
AZ3146 + Alpelisib = compound: CN1CCC(CC1)OC2=CC(=C(C=C2)NC3=NC=C4C(=N3)N(C(=O)N4C)C5CCCC5)OC [AZ3146] + Cc1nc(NC(=O)N2CCC[C@H]2C(N)=O)sc1-c1ccnc(C(C)(C)C(F)(F)F)c1 [Alpelisib] (partner 2 µM)
How it was run: (§1)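 For relative viability, nuclei counts in treated wells were divided by those in vehicle wells. Lung cancer cell lines had been pin-tool dosed in 1536-well plates the day after seeding and cultured for 5 days, then fixed and stained in one step (final 0.05% Triton X-100, 1% formaldehyde, 1 ug/ml Hoechst) and imaged at 4×. Doses were one drug alone or a fixed anchor-drug dose plus five library-drug doses (not always all listed) in √10 steps, and values are duplicate-plate medians.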

GSK-J4 + Phenformin = compound: CCOC(=O)CCNc1cc(N2CCc3ccccc3CC2)nc(-c2ccccn2)n1 [GSK-J4] + N=C(N)NC(=N)NCCc1ccccc1 [Phenformin] (partner 250 µM)
How it was run: as §1

GSK-J4 + Navitoclax = compound: CCOC(=O)CCNc1cc(N2CCc3ccccc3CC2)nc(-c2ccccn2)n1 [GSK-J4] + CC1(C)CCC(c2ccc(Cl)cc2)=C(CN2CCN(c3ccc(C(=O)NS(=O)(=O)c4ccc(N[C@H](CCN5CCOCC5)CSc5ccccc5)c(S(=O)(=O)C(F)(F)F)c4)cc3)CC2)C1 [Navitoclax] (partner 0.5 µM)
How it was run: as §1

AZ3146 + Luminespib = compound: CN1CCC(CC1)OC2=CC(=C(C=C2)NC3=NC=C4C(=N3)N(C(=O)N4C)C5CCCC5)OC [AZ3146] + CCNC(=O)c1noc(-c2cc(C(C)C)c(O)cc2O)c1-c1ccc(CN2CCOCC2)cc1 [Luminespib] (partner 0.01 µM)
How it was run: as §1

Cell Line | relative viability (AZ3146 + Alpelisib; first compound 0.253 µM) | relative viability (AZ3146 + Alpelisib; first compound 0.8 µM) | relative viability (AZ3146 + Alpelisib; first compound 2.53 µM) | relative viability (AZ3146 + Alpelisib; first compound 8 µM) | relative viability (GSK-J4 + Phenformin; first compound 0.5 µM) | relative viability (GSK-J4 + Phenformin; first compound 1.581 µM) | relative viability (GSK-J4 + Phenformin; first compound 5 µM) | relative viability (GSK-J4 + Phenformin; first compound 15.81 µM) | relative viability (GSK-J4 + Phenformin; first compound 50 µM) | relative viability (GSK-J4 + Navitoclax; first compound 0.5 µM) | relative viability (GSK-J4 + Navitoclax; first compound 1.581 µM) | relative viability (GSK-J4 + Navitoclax; first compound 5 µM) | relative viability (GSK-J4 + Navitoclax; first compound 50 µM) | relative viability (AZ3146 + Alpelisib; first compound 0.08 µM) | relative viability (GSK-J4 + Navitoclax; first compound 15.81 µM) | relative viability (AZ3146 + Luminespib; first compound 0.08 µM) | relative viability (AZ3146 + Luminespib; first compound 0.253 µM) | relative viability (AZ3146 + Luminespib; first compound 0.8 µM) | relative viability (AZ3146 + Luminespib; first compound 2.53 µM) | relative viability (AZ3146 + Luminespib; first compound 8 µM)
HCC-78 | 0.268 | 0.224 | 0.367 | 0.321 | 0.87 | 0.731 | 0.946 | 0.588 | 0.528 | 0.779 | 0.681 | 1.01 | 0.689 | – | – | – | – | – | – | –
HCC-366 | 0.379 | 0.419 | 0.433 | 0.393 | 0.574 | 0.579 | – | 0.482 | 0.59 | 1.08 | 0.806 | – | 1.03 | 0.357 | 1.02 | – | – | – | – | –
HCC-827 | 0.976 | 1.08 | 0.921 | 0.968 | 0.366 | 0.383 | 0.426 | 0.355 | 0.398 | 1.02 | 0.991 | 1.06 | 0.994 | 1.02 | 1 | 0.62 | 0.616 | 0.574 | 0.609 | 0.598
HOP-62 | 0.96 | 0.796 | 1.07 | 0.832 | 0.612 | 0.548 | 0.558 | 0.665 | 0.528 | 0.955 | 0.989 | 1.11 | 0.707 | 0.896 | 1.1 | 0.943 | 0.865 | 0.87 | 0.959 | 0.992
IA-LM | 0.627 | 0.864 | 0.714 | 0.763 | – | – | – | – | – | 0.747 | 0.718 | 0.802 | 0.105 | 0.638 | 0.666 | – | – | – | – | –
LC-2-ad | 0.797 | 0.866 | 0.956 | 0.792 | 0.635 | 0.499 | 0.495 | 0.568 | 0.432 | 0.464 | 0.389 | 0.407 | 0.41 | 0.793 | 0.374 | 0.877 | 1.16 | 1.08 | 1.09 | 1.07
LCLC-97TM1 | – | 0.245 | 0.3 | 0.247 | 0.369 | 0.327 | 0.397 | 0.339 | 0.264 | – | – | 0.43 | 0.307 | – | 0.178 | 0.825 | 0.673 | 0.647 | 0.814 | 0.878
LCLC-103H | 0.886 | 0.859 | 1.03 | 0.99 | 0.32 | 0.296 | 0.224 | 0.331 | 0.33 | – | – | – | – | 0.985 | – | 1.01 | 0.917 | 0.966 | 1.01 | 1.02
LK-2 | – | – | 1.16 | 1.66 | 0.707 | – | 0.416 | 0.23 | 0.253 | 0.884 | 0.838 | 0.874 | 1.05 | 0.907 | 0.829 | 0.22 | 0.194 | 0.257 | 0.151 | 0.203
LOU-NH91 | 0.663 | 0.681 | 0.711 | 0.672 | 0.716 | 0.69 | 0.561 | 0.647 | 0.802 | 0.733 | 0.743 | 0.577 | 0.764 | 0.662 | 0.571 | 0.351 | 0.405 | 0.374 | 0.377 | 0.385
LU99A | 0.564 | 0.515 | 0.606 | 0.438 | 0.866 | 0.671 | – | 0.757 | 0.554 | 0.788 | 0.746 | 0.852 | 0.633 | 0.494 | 0.814 | 0.247 | 0.236 | 0.327 | 0.262 | 0.477
NCI-H358 | 0.741 | 0.783 | 0.889 | 0.78 | 0.443 | 0.264 | 0.349 | 0.266 | 0.255 | – | – | – | – | 0.897 | – | 0.407 | 0.383 | 0.51 | 0.508 | 0.394
NCI-H522 | – | – | – | – | 0.64 | 0.656 | 0.595 | 0.543 | 0.588 | – | – | – | – | – | – | 1.1 | 1.03 | 1.2 | 1.13 | 1.18
NCI-H650 | 1.08 | 0.915 | 1.14 | 1.25 | 0.455 | 0.419 | 0.322 | 0.422 | 0.423 | – | – | – | – | 0.813 | – | 0.734 | 0.706 | 0.764 | 0.904 | 0.854
NCI-H661 | 0.549 | 0.565 | 0.689 | 1.03 | 0.269 | 0.312 | 0.238 | 0.258 | 0.266 | – | – | – | – | 0.729 | – | 0.928 | 0.968 | 0.96 | 0.896 | 0.688
NCI-H1299 | 1.01 | 1.02 | 1.07 | 1.08 | – | – | – | – | – | 1.08 | 0.875 | 0.955 | 0.971 | 1 | 1.04 | – | – | – | – | –
NCI-H1563 | 0.87 | 1 | 0.927 | 0.882 | 0.665 | 0.71 | 0.607 | 0.56 | 0.656 | – | – | – | – | 0.924 | – | 0.465 | 0.525 | 0.477 | 0.51 | 0.511
NCI-H1623 | – | – | – | – | 0.597 | 0.457 | 0.623 | 0.398 | 0.545 | – | – | – | – | – | – | 0.486 | 0.591 | 0.612 | 0.604 | 0.556
NCI-H1650 | – | – | – | – | 0.512 | 0.415 | 0.375 | 0.4 | 0.408 | 1.07 | 0.916 | 1.33 | 0.565 | – | 0.995 | 0.214 | 0.201 | 0.185 | 0.189 | 0.186
NCI-H1703 | 0.34 | 0.326 | 0.437 | 0.29 | – | – | – | – | – | 0.944 | 0.963 | 0.776 | 1.25 | 0.374 | 1.08 | – | – | – | – | –
NCI-H2342 | – | – | – | – | 0.652 | 0.629 | 0.573 | 0.706 | 0.595 | – | – | – | – | – | – | 0.624 | 0.719 | 0.901 | 0.698 | 0.688
SW 900 | – | – | – | – | 0.581 | 0.592 | 0.617 | 0.402 | 0.246 | – | – | – | – | – | – | 0.176 | 0.167 | 0.18 | 0.184 | 0.167
